Measured values from patent publication US11214565B2, “Compound, compositions, and methods” (Denali Therapeutics Inc., priority 2015, dated 2022).

Target: LRRK2 G2019S enzyme (Homo sapiens (Human), UniProt Q5S007, G2019S)
Test: LRRK2 G2019S TR-FRET biochemical kinase assay (LRRKtide substrate)
Conditions: Table D-4; 5 nM LRRK2, 134 μM ATP, 60 minute reaction, 23° C.
How it was run: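 5 nM LRRK2 G2019S preincubated 20 min with LRRKtide and compound (3.162-fold dilution series) in Tris pH 7.5, MgCl2, EGTA, Brij-35, DTT, then reacted 60 min at 23 °C with 134 μM ATP. EDTA-stopped; pLRRKtide antibody detection, TR-FRET read at 340 nm excitation, 520/490–495 nm emission.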

LRRK2 G2019S enzyme, sequence (Q5S007 whole entry G2019S): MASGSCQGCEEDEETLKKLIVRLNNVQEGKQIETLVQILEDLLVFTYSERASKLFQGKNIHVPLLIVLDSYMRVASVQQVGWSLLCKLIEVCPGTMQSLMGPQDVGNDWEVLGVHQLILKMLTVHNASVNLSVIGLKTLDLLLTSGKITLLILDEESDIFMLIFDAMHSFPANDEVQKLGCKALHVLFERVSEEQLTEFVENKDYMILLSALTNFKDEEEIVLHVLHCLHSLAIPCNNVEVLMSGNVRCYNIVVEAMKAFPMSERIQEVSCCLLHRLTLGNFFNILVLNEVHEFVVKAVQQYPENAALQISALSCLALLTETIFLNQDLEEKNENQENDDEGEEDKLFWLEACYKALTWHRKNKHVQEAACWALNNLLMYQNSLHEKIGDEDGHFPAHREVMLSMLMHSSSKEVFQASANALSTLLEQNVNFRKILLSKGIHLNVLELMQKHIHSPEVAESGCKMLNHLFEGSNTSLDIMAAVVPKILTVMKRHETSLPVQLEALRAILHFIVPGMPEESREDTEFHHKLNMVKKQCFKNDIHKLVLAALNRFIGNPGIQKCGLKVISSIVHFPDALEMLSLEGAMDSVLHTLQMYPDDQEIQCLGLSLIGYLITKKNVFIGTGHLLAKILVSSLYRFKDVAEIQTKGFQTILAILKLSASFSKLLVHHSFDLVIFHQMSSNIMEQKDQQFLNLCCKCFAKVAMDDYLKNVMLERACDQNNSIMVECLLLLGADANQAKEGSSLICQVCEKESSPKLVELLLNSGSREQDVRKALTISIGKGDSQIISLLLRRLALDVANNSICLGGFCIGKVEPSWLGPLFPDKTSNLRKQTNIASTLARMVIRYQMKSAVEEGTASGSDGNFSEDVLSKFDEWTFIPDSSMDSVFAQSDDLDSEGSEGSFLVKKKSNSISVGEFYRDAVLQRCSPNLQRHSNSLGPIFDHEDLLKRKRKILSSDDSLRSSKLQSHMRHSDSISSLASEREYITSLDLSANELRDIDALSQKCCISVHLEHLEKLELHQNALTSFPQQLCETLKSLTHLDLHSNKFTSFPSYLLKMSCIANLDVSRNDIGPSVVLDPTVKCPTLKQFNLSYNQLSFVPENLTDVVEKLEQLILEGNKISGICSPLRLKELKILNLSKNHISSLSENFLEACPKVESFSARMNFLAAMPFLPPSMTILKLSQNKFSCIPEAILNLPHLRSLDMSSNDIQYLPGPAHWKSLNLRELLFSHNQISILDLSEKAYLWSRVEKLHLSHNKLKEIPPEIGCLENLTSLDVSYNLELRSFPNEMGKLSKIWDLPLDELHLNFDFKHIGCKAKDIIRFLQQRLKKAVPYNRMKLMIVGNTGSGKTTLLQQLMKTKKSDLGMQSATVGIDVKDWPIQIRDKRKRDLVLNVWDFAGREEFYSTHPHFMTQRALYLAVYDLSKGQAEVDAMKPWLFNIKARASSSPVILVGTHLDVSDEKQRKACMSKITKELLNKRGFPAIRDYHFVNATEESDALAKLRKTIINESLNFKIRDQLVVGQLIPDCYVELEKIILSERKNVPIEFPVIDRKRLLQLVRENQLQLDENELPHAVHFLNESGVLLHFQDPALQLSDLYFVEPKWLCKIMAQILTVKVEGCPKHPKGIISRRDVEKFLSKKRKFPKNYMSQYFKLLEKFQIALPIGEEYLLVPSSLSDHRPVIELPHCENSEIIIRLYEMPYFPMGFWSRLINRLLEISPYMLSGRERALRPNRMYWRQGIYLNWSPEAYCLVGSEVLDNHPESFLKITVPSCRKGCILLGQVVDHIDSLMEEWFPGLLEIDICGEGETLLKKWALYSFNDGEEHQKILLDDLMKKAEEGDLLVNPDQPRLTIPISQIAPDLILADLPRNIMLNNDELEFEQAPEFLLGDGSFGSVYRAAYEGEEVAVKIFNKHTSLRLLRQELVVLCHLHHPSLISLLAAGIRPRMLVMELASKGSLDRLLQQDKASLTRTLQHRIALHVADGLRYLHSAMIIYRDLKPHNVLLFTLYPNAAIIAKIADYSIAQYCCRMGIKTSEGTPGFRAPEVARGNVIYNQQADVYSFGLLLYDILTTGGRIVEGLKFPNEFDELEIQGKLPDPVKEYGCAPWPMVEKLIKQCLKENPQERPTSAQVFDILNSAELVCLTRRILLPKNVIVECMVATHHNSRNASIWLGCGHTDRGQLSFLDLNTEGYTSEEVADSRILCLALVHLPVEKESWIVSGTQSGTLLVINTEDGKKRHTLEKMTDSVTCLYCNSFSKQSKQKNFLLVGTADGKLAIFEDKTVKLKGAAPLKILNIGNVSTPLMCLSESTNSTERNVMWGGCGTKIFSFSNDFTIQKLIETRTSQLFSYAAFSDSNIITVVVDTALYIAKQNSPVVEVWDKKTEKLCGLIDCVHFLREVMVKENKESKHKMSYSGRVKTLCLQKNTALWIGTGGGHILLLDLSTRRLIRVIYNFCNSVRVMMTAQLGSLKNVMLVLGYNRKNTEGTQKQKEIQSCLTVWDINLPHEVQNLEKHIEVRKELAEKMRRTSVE

Row | SMILES | IC50
1 | CCNc1nc(Nc2cnn([C@H]3C[C@@H](N4CCOCC4)C3)c2C)ncc1C(F)(F)F [Compound D-81] | < 30 nM
2 | CNc1nc(Nc2cn([C@H]3C[C@@H](c4nncs4)C3)nc2C)ncc1C(F)(F)F [Compound D-83] | < 30 nM
3 | CCNc1nc(Nc2cnn([C@H]3C[C@H](c4cocn4)C3)c2C)ncc1C(F)(F)F [Compound D-84] | < 30 nM
4 | CCNc1nc(Nc2cnn([C@H]3C[C@H](n4nccn4)C3)c2C)ncc1Br [Compound D-85] | < 30 nM
5 | Cc1c(Nc2ncc(C(F)(F)F)c(NCC(F)F)n2)cnn1[C@H]1C[C@H](n2cccn2)C1 [Compound D-87] | < 30 nM
6 | CCNc1nc(Nc2cnn([C@H]3C[C@H](n4cc(F)cn4)C3)c2C)ncc1C(F)(F)F [Compound D-88] | < 30 nM
7 | CCNc1nc(Nc2cnn([C@H]3C[C@H](c4nncs4)C3)c2C)ncc1C(F)(F)F [Compound D-89] | < 30 nM
8 | CNc1nc(Nc2cnn(C3CCC(n4nccn4)C3)c2C)ncc1C(F)(F)F [Compound D-90] | < 30 nM
9 | CCNc1nc(Nc2cnn([C@H]3C[C@@H](n4cccn4)C3)c2C)ncc1C(F)(F)F [Compound D-93] | < 30 nM
10 | CNc1nc(Nc2cn([C@H]3C[C@H](n4cccn4)C3)nc2C)ncc1C(F)(F)F [Compound D-94] | < 30 nM
11 | CNc1nc(Nc2cn(C3CCCc4c3cnn4C)nc2C)ncc1C(F)(F)F [Compound D-95] | > 60 nM
12 | CCNc1nc(Nc2cnn([C@H]3C[C@H](n4cccn4)C3)c2C)ncc1C(F)(F)F [Compound D-98] | < 30 nM
13 | CNc1nc(Nc2cn(C3CCn4c(Cl)cnc43)nc2C)ncc1C(F)(F)F [Compound D-99] | < 30 nM
14 | CCNc1nc(Nc2cnn(C3CCn4ccnc43)c2Cl)ncc1C(F)(F)F [Compound D-104] | < 30 nM
15 | Cc1c(Nc2ncc(C(F)(F)F)c(NC3CC3)n2)cnn1[C@H]1C[C@H](n2cccn2)C1 [Compound D-106] | < 30 nM
16 | CNc1nc(Nc2cnn([C@H]3C[C@H](n4cnc(C)n4)C3)c2C)ncc1C(F)(F)F [Compound D-108] | < 30 nM
17 | CNc1nc(Nc2cnn([C@H]3C[C@H](n4ncnc4C)C3)c2C)ncc1C(F)(F)F [Compound D-109] | < 30 nM
18 | CNc1nc(Nc2cnn([C@H]3C[C@H](n4cccn4)C3)c2C)ncc1Br [Compound D-111] | < 30 nM
19 | CNc1nc(Nc2cnn(C3CCC(n4ccnn4)C3)c2C)ncc1C(F)(F)F [Compound D-112] | < 30 nM
20 | CNc1nc(Nc2cnn(C3CCC(n4nccn4)C3)c2C)ncc1C(F)(F)F [Compound D-114] | < 30 nM
21 | CNc1nc(Nc2cn(C3(c4ncn(C)n4)CC3)nc2C)ncc1C(F)(F)F [Compound D-115] | > 60 nM
22 | CCNc1nc(Nc2cnn([C@H]3C[C@H](n4cncn4)C3)c2C)ncc1C(F)(F)F [Compound D-117] | < 30 nM
23 | Cc1c(Nc2ncc(C(F)(F)F)c(NC3CC3)n2)cnn1[C@H]1C[C@H](n2nccn2)C1 [Compound D-119] | < 30 nM
24 | CCNc1nc(Nc2cnn([C@H]3C[C@@H](n4ccnn4)C3)c2C)ncc1C(F)(F)F [Compound D-123] | < 30 nM
25 | CNc1nc(Nc2cnn(C3CCC(n4ccnn4)C3)c2C)ncc1C(F)(F)F [Compound D-124] | < 30 nM
26 | CNc1nc(Nc2cn(C3CCC(n4ccnn4)C3)nc2C)ncc1C(F)(F)F [Compound D-125] | 30 to 60 nM

Row | SMILES | IC50
27 | COc1nc(Nc2cn(C3CCn4ccnc43)nc2C)ncc1C(F)(F)F [Compound D-127] | < 30 nM
28 | CNc1nc(Nc2cnn([C@H]3C[C@H](n4nccn4)C3)c2C)ncc1Br [Compound D-128] | < 30 nM
29 | COc1nc(Nc2cnn([C@H]3C[C@H](n4nccn4)C3)c2C)ncc1Br [Compound D-129] | < 30 nM
30 | CNc1nc(Nc2cn(C3(c4ncn(C)n4)CCC3)nc2C)ncc1C(F)(F)F [Compound D-136] | < 30 nM
31 | CNc1nc(Nc2cn(C3CCn4ccnc43)nc2C)ncc1C(F)(F)F [Compound D-137] | < 30 nM
32 | CNc1nc(Nc2cnn(C3(CC#N)CC3)c2C)ncc1C(F)(F)F [Compound D-144] | < 30 nM
33 | CCNc1nc(Nc2cnn([C@H]3C[C@@H](n4nccn4)C3)c2C)ncc1C(F)(F)F [Compound D-148] | < 30 nM
34 | CNc1nc(Nc2cnn(C3CCn4cncc43)c2C)ncc1C(F)(F)F [Compound D-150] | < 30 nM
35 | CCNc1nc(Nc2cnn([C@H]3C[C@H](N4CCOCC4)C3)c2C)ncc1C(F)(F)F [Compound D-153] | < 30 nM
36 | CCNc1nc(Nc2cnn([C@H]3C[C@H](n4nccn4)C3)c2C)ncc1Cl [Compound D-154] | < 30 nM
37 | CNc1nc(Nc2cnn(C3(COC(F)F)CC3)c2C)ncc1C(F)(F)F [Compound D-157] | < 30 nM
38 | CNc1nc(Nc2cnn(CC3(CC#N)CC3)c2C)ncc1C(F)(F)F [Compound D-157a] | < 30 nM
39 | CCNc1nc(Nc2cnn(CC3(CC#N)CC3)c2C)ncc1C(F)(F)F [Compound D-158] | < 30 nM
40 | CNc1nc(Nc2cnn([C@H]3C[C@H](n4nccn4)C3)c2C)ncc1C(F)(F)F [Compound D-162] | < 30 nM
41 | CNc1nc(Nc2cnn([C@H]3C[C@@H](n4cc(F)cn4)C3)c2C)ncc1C(F)(F)F [Compound D-165] | < 30 nM
42 | CNc1nc(Nc2cn([C@H]3C[C@H](c4nncs4)C3)nc2C)ncc1C(F)(F)F [Compound D-167] | < 30 nM
43 | CNc1nc(Nc2cnn([C@H]3C[C@H](c4nncs4)C3)c2C)ncc1C(F)(F)F [Compound D-168] | < 30 nM
44 | CNc1nc(Nc2cnn(C3CCCn4ccnc43)c2C)ncc1C(F)(F)F [Compound D-169] | > 60 nM
45 | COc1nc(Nc2cn(C3(C)CCn4ccnc43)nc2C)ncc1Br [Compound D-178] | < 30 nM
46 | COc1nc(Nc2cn(C(F)(F)C(N)=O)nc2C)ncc1Br [Compound D-183] | < 30 nM
47 | COc1nc(Nc2cnn([C@H]3C[C@@H](n4nccn4)C3)c2C)ncc1Br [Compound D-184] | < 30 nM
48 | CNc1nc(Nc2cnn([C@H]3C[C@@H](n4nccn4)C3)c2C)ncc1Br [Compound D-185] | < 30 nM
49 | COc1nc(Nc2cnn([C@H]3C[C@H](n4nccn4)C3)c2C)ncc1Cl [Compound D-186] | < 30 nM
50 | CCNc1nc(Nc2cnn([C@H]3C[C@H](N4CCN(C)CC4)C3)c2C)ncc1C(F)(F)F [Compound D-187] | < 30 nM
51 | CNc1nc(Nc2cnn([C@H]3C[C@@H](n4cc(F)cn4)C3)c2C)ncc1Br [Compound D-192] | < 30 nM

More lines, now with the values ahead:

Row | IC50 | SMILES
52 | < 30 nM | CCNc1nc(Nc2cn(C3CCc4c(C)noc43)nc2C)ncc1C(F)(F)F [Compound D-79]
53 | < 30 nM | CCNc1nc(Nc2cn(C(C)COC(F)F)nc2C)ncc1C(F)(F)F [Compound D-80]
54 | < 30 nM | CCNc1nc(Nc2cnn(C(C)COC(F)F)c2C)ncc1C(F)(F)F [Compound D-82]
55 | < 30 nM | CCNc1nc(Nc2cnn(C3CCc4c(C)noc43)c2C)ncc1C(F)(F)F [Compound D-91]
56 | 30 to 60 nM | CCNc1nc(Nc2cn(C3CCCn4ccnc43)nc2C)ncc1C(F)(F)F [Compound D-92]
57 | < 30 nM | CCNc1nc(Nc2cnn(C3CCc4ncsc43)c2C)ncc1C(F)(F)F [Compound D-97]
58 | < 30 nM | CCNc1nc(Nc2cn(C(F)(F)C(=O)NC)nc2C)ncc1C(F)(F)F [Compound D-100]
59 | < 30 nM | CCNc1nc(Nc2cn(C(F)(F)C(N)=O)nc2C)ncc1C(F)(F)F [Compound D-101]
60 | < 30 nM | CCNc1nc(Nc2cnn([C@H]3C[C@H](N4CCCC4=O)C3)c2C)ncc1C(F)(F)F [Compound D-103]
61 | < 30 nM | CCNc1nc(Nc2cnn(C3CCn4cncc43)c2C)ncc1C(F)(F)F [Compound D-110]
62 | < 30 nM | CCNc1nc(Nc2cn([C@H]3C[C@@H](c4cocn4)C3)nc2C)ncc1C(F)(F)F [Compound D-113]
63 | < 30 nM | CCNc1nc(Nc2cnn([C@H]3C[C@H](OC(F)F)C3)c2C)ncc1C(F)(F)F [Compound D-116]
64 | < 30 nM | CCNc1nc(Nc2cnn([C@H]3C[C@@H](n4ncnc4C(F)(F)F)C3)c2C)ncc1C(F)(F)F [Compound D-118]
65 | < 30 nM | CCOc1nc(Nc2cn(C(F)(F)C(N)=O)nc2C)ncc1C(F)(F)F [Compound D-120]
66 | > 60 nM | CCNc1nc(Nc2cnn(C3CCc4cn[nH]c43)c2C)ncc1C(F)(F)F [Compound D-126]
67 | < 30 nM | CCNc1nc(Nc2cn(C3CCc4nc[nH]c43)nc2C)ncc1C(F)(F)F [Compound D-131]
68 | < 30 nM | CCNc1nc(Nc2cnn([C@H]3C[C@H](n4cnc(C(F)(F)F)n4)C3)c2C)ncc1C(F)(F)F [Compound D-135]
69 | < 30 nM | CCNc1nc(Nc2cn([C@H]3C[C@H](OC(F)F)C3)nc2C)ncc1C(F)(F)F [Compound D-138]
70 | < 30 nM | CCNc1nc(Nc2cnn([C@H]3C[C@@H](N4CCCC4=O)C3)c2C)ncc1C(F)(F)F [Compound D-139]
71 | < 30 nM | CCNc1nc(Nc2cn(C(F)(F)C(=O)NC3CC3)nc2C)ncc1C(F)(F)F [Compound D-140]
72 | < 30 nM | CCNc1nc(Nc2cnn(C3CCn4nccc43)c2C)ncc1C(F)(F)F [Compound D-145]
73 | < 30 nM | CCNc1nc(Nc2cn(C3CCn4nccc43)nc2C)ncc1C(F)(F)F [Compound D-146]
74 | < 30 nM | CCNc1nc(Nc2cnn([C@H]3C[C@@H](S(C)(=O)=O)C3)c2C)ncc1C(F)(F)F [Compound D-147]
75 | < 30 nM | CCNc1nc(Nc2cnn(C3(CC#N)CC3)c2C)ncc1C(F)(F)F [Compound D-155]
76 | < 30 nM | CNC(=O)C(F)(F)n1cc(Nc2ncc(C(F)(F)F)c(NC)n2)c(C)n1 [Compound D-159]
77 | < 30 nM | CCNC(=O)C(F)(F)n1cc(Nc2ncc(C(F)(F)F)c(NC)n2)c(C)n1 [Compound D-160]
78 | < 30 nM | CCNc1nc(Nc2cn(C(F)(F)C(=O)O)nc2C)ncc1C(F)(F)F [Compound D-161]
79 | < 30 nM | CCNc1nc(Nc2cn(C(F)(F)C(N)=O)nc2Cl)ncc1C(F)(F)F [Compound D-164]
